What was measured:
[1] = alamarBlue cytotoxicity, range over four cell lines; type: cell-based; conditions: human
Description: (§1) Cytotoxicity Assays. Cell culture cytotoxicity assays were performed using the. alamarBlue method, as described by Ahmed et al., J. Immun. Methods 1994, 170, 211-224, which is incorporated herein by reference. Briefly, aliquots of 100 μL of cell suspension (1.0-2.5×10^3 cells) was placed in 96-well microtiter plates in an atmosphere of 5% CO2 at 37° C. After 24 hours, 100 μL of culture medium and 2 μL of compound in vehicle (culture media with 40% pyridine) or vehicle alone were added, and the plates incubated an additional 72 hours. […] After the culture media had been removed from each well, 200 μL of fresh media and 20 μL of 90% alamarBlue reagent were added, followed by an additional 6 h incubation. The fluorescent intensity was measured using a Spectrafluor Plus plate reader with excitation at 530 nm and emission at 590 nm.

[2] = Metal ion binding by continuous variation, Ca2+; conditions: Ca^2+, methanol, 1:1 complex
Description: Previous work indicated the metal ion binding mechanism of UK-1, so the method of continuous variation was used to determine the ability of selected UK-1analogues to bind a variety of metal ions. Methanolic solutions of UK-1 or UK-1 analogues and metal ion salts [Ca(NO3)2, Mg(NO3)2, Zn(NO3)2, or Fe(NO3)3] at various molar ratios, and 20 μM combined total concentration, were prepared and the absorbance at 418 nm was determined. […] Compound 2.1 does bind with Ca^2+ and Zn^2+ better than UK-1.
Continuous variation plots. A 100 μM solution of UK-1 or analogue and 100 AM solutions of Ca(NO3)2, Mg(NO3)2, Zn(NO3)2, or Fe(NO3)3 were prepared in methanol. From these stock solutions, 15 samples (1 mL) of varying mole fraction of the metal ion were prepared at a constant, combined concentration of 20 μM for the ligand and the metal ion. The change in absorbance was monitored from 500 to 200 nm for each sample using as a reference a 1 mL solution containing the same concentration of ligand as the sample being measured but without the metal ion. The maximum absorbance change was typically around 418 nm but varied somewhat for each metal ion. The absorbance at 418 nm was plotted as a function of the mole fraction of the metal ion and the maximum absorbance change was determined. The absorbance of a sample containing the metal ion concentration corresponding to this maximum change and a 15 fold excess of metal ion at this ligand concentration, subtracted from a reference containing the same concentration of ligand but no metal ion was used to normalize the curve and obtain the conditional formation constant as described in the paper to Likussar, W.; Boltz, D. F. Anal. Chem. 1971, 43, 1265-1272, which is incorporated herein by reference.

HT-29 cells = experiment: alamarBlue cytotoxicity assay, HT-29; type: cell-based; conditions: Homo sapiens; HT-29, alamarBlue, 72 h
Description: as §1, with “hours. The final pyridine concentration in all cases was 0.4%; at this pyridine concentration there was no affect on the growth of cells compared to cells in culture media without added pyridine.” for “hours.”, “nm. Results are reported as IC50 values, the average concentration required to produce a decrease of fluorescent intensity of 50% relative to vehicle-treated controls in two separate determinations.” for “nm.”

[3] = test system: gram-positive or gram negative bacteria; conditions: gram-positive or gram negative bacteria, concentrations as large as 250 μM; cited from earlier work
MCF-7 cells = experiment: alamarBlue cytotoxicity assay, MCF-7; type: cell-based; conditions: Homo sapiens, MCF7; MCF-7, alamarBlue, 72 h
Description: as §1, with “hours. The final pyridine concentration in all cases was 0.4%; at this pyridine concentration there was no affect on the growth of cells compared to cells in culture media without added pyridine.” for “hours.”, “nm. Results are reported as IC50 values, the average concentration required to produce a decrease of fluorescent intensity of 50% relative to vehicle-treated controls in two separate determinations.” for “nm.”

MDA-231 = experiment: alamarBlue cytotoxicity assay, MDA-231; type: cell-based; conditions: Homo sapiens, MDA-MB-231; MDA-231, alamarBlue
Description: as §1, with “hours. The final pyridine concentration in all cases was 0.4%; at this pyridine concentration there was no affect on the growth of cells compared to cells in culture media without added pyridine.” for “hours.”, “nm. Results are reported as IC50 values, the average concentration required to produce a decrease of fluorescent intensity of 50% relative to vehicle-treated controls in two separate determinations.” for “nm.”

[4] = test system: double-stranded DNA oligonucleotide; experiment: DNA binding by ESI-MS; set-up: key: MetalDepend.: all ligand-DNA complex ions also contained a metal ion.; None: no ligand-DNA complex ions observed.; MetalIndepend.: ligand-DNA and ligand-DNA-metal ion complex ions observed; conditions: ligand-DNA complex ions, presence or absence of added NiCl2
SKBR3 = experiment: alamarBlue cytotoxicity assay, SKBR3; type: cell-based; conditions: Homo sapiens, SK-BR-3
Description: as §1, with “hours. The final pyridine concentration in all cases was 0.4%; at this pyridine concentration there was no affect on the growth of cells compared to cells in culture media without added pyridine.” for “hours.”, “nm. Results are reported as IC50 values, the average concentration required to produce a decrease of fluorescent intensity of 50% relative to vehicle-treated controls in two separate determinations.” for “nm.”

HL60 cells = experiment: alamarBlue cytotoxicity assay, HL60; type: cell-based, human; conditions: HL60, alamarBlue, 72 h
Description: as §1, with “hours. The final pyridine concentration in all cases was 0.4%; at this pyridine concentration there was no affect on the growth of cells compared to cells in culture media without added pyridine.” for “hours.”, “nm. Results are reported as IC50 values, the average concentration required to produce a decrease of fluorescent intensity of 50% relative to vehicle-treated controls in two separate determinations.” for “nm.”

[5] = test system: Staphylococcus aureus ATCC 29213; experiment: Antimicrobial bioassay, S. aureus; type: cell-based; conditions: Staphylcoccus aureus, concentrations up to 50 μg/mL
Description: Antimicrobial Bioassay: Staphylococcus aureus ATCC 29213 and methicillin-resistant S. aureus ATCC 43300 (MRS) were obtained from the American Type Culture Collection (Rockville, Md.) and stored on agar slants at 4° C. until needed. Susceptibility testing was performed using a modified version of the NCCLS methods: “Methods for Dilution Antimicrobial Susceptibility Tests for Bacteria that Grow Aerobically,” M7-A4, Vol. 17, No. 2, NCCLS, (1997) and “Reference Method for Broth Dilution Antifungal Susceptibility Testing of Yeasts; Approved Standard,” M27-A, Vol. 17, No. 9, NCCLS, (1997), both of which are incorporated herein by reference. Microorganisms were subcultured prior to the assay by suspending cells from the slant in Eugon broth (BBL, Maryland) and incubating for 24 hours at 37° C. Inocula were prepared by diluting the subcultured organism in its incubation broth after comparison to the 0.5 McFarland Standard (a BaSO4 suspension) to afford final inocula ranges of S. aureus: 1.0-5.0×10^5 and MRS: 0.2-6.0×10^5 CFU/ml. Test compounds were dissolved in DMSO, serially-diluted using normal saline, and transferred in duplicate to 96 well flat-bottomed microtiter plates. The microbial inocula were added to the samples to achieve a final volume of 200 μl and final compound concentrations starting with 50 μg/ml. Drug [Ciprofloxacin (ICN Biomedicals, Ohio)] as well as growth and blank (media only) controls were added to each test plate. Plates were read at 630 nm using the EL-340 Biokinetics Reader (Bio-Tek Instruments, Vermont) prior to and after incubation at 37° C. for 24 hours. Percent growth was calculated and plotted versus concentration to afford the IC50, or sample concentration that affords 50% growth of the organism relative to controls.

COC(=O)c1cccc2oc(-c3cccc4oc(-c5ccccc5O)nc34)nc12 [UK-1]
IC50 at 72 h [1]: 320 to 65000 nM | Association constant for metal ion binding [2]: 40000 M⁻¹ | IC50 (HT-29 cells): 65000 nM | growth inhibition [3]: does not inhibit the growth | IC50 (MCF-7 cells): 1600 nM | IC50 (MDA-231): 500 nM | DNA-Binding ESI-MS [4]: MetalDepend.^d | IC50 (SKBR3): 100 nM | IC50 (HL60 cells): 400 nM | IC50 (HL60 cells; Homo sapiens, HL-60, 72 h): 320 nM | antibacterial effect [5]: no indication of any antibacterial effect

Source: patent US7294643B2, “UK-1 analogues: methods of preparation and use” (Board of Regents, The University of Texas System, priority 2002, dated 2007)
